The target in assay [1] is T1, KRASG12D (Homo sapiens, UniProt P01116, G12D).
T1 construct: made in house; host or cells: E. coli BL21 (DE3)
Description: Bio-Biochem-PPI-HTRF Ras-SOS1 interaction assay (KRAS G12D). In kind it is biochemical. Conditions: 5 nM. Summed up:
(§1)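 HTRF measurement of GST-K-Ras (wt or G12D) binding to His-hSOS1, via anti-GST-Eu(K) donor and anti-6His-XL665 acceptor, in HEPES pH 7.4 buffer with NaCl, DTT, BSA and Igepal. Read after ≥10 min; compounds in duplicate from 10 μM down to 0.01 μM. IC50 from 665/620 nm ratio.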
Background: TR-FRET usually uses a lanthanide donor and a delayed reading to cut background.

The target of assay [2] is T2, KRASwt (Homo sapiens, UniProt P01116).
T2 construct: made in house; host or cells: E. coli BL21 (DE3)
T2 sequence (P01116 1-188 isoform P01116-2): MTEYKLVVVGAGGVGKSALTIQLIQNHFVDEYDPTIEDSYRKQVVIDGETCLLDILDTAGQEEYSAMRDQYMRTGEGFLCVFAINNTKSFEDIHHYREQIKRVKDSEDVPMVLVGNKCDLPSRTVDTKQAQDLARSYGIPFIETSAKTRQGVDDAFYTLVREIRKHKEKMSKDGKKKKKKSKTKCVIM
Description: Bio-Biochem-PPI-HTRF Ras-SOS1 interaction assay (KRAS wt). In kind it is biochemical. Conditions: 5 nM. The gist of the method:
as §1

Structures are written as SMILES. Where only a bound is given, the exact number is not on record here.

T1 sequence (P01116 1-188 isoform P01116-2 G12D): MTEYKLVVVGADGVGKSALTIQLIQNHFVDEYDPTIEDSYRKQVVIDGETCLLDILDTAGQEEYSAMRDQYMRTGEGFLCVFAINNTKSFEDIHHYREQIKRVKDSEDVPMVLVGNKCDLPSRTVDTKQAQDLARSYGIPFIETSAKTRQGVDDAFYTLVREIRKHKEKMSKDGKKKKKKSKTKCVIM

The IC50 is the midpoint of a concentration-inhibition curve. Higher therefore signals weaker potency in that assay. On to `N#Cc1c(N)sc2c(F)ccc(-c3c(F)c4nc(OC[C@@]56CCCN5C[C@H](F)C6)nc(N5CCCCC6(CNC6)C5)c4c(=O)n3C3CC3)c12` [compound 198, 2-amino-4-(6-cyclopropyl-8-fluoro-2-(((2R,7aS)-2-fluorotetrahydro-1H-pyrrolizin-7a(5H)-yl)methoxy)-5-oxo-4-(2,6-diazaspiro[3.6]decan-6-yl)-5,6-dihydropyrido[4,3-d]pyrimidin-7-yl)-7-fluorobenzo[b]thiophene-3-carbonitrile], for which the IC50 in assay [1] and in assay [2] was below 5 µM throughout.
`N#Cc1c(N)sc2c(F)ccc(-c3c(Cl)cc4c(N5CCCCC6(CN(C(=O)C78CC(F)(C7)C8)C6)C5)nc(OC[C@@]56CCCN5C[C@H](F)C6)nc4c3F)c12` [compound 199, 2-amino-4-(6-chloro-8-fluoro-4-(2-(3-fluorobicyclo[1.1.1]pentane-1-carbonyl)-2,6-diazaspiro[3.6]decan-6-yl)-2-(((2R,7aS)-2-fluorotetrahydro-1H-pyrrolizin-7a(5H)-yl)methoxy)quinazolin-7-yl)-7-fluorobenzo[b]thiophene-3-carbonitrile]: the half-maximal inhibitory concentration (IC50) in assay [1] and in assay [2] was below 5 µM throughout.
As for `N#Cc1c(N)sc2c(F)ccc(-c3c(Cl)cc4c(N5CCOC6(CN(C(=O)C(F)Cl)C6)C5)nc(OC[C@@]56CCCN5C[C@H](F)C6)nc4c3F)c12` (stereo partly drawn) [compound 200, 2-amino-4-(6-chloro-4-(2-(2-chloro-2-fluoroacetyl)-5-oxa-2,8-diazaspiro[3.5]nonan-8-yl)-8-fluoro-2-(((2R,7aS)-2-fluorotetrahydro-1H-pyrrolizin-7a(5H)-yl)methoxy)quinazolin-7-yl)-7-fluorobenzo[b]thiophene-3-carbonitrile], the half-inhibitory concentration (IC50) in assay [1] and in assay [2] was below 5 µM each time.
Regarding `N#Cc1c(N)sc2c(F)ccc(-c3c(Cl)cc4c(N5CCCCC6(CN(C(=O)C7CC7)C6)C5)nc(OC[C@@]56CCCN5C[C@H](F)C6)nc4c3F)c12` [compound 201, 2-amino-4-(6-chloro-4-(2-(cyclopropanecarbonyl)-2,6-diazaspiro[3.6]decan-6-yl)-8-fluoro-2-(((2R,7aS)-2-fluorotetrahydro-1H-pyrrolizin-7a(5H)-yl)methoxy)quinazolin-7-yl)-7-fluorobenzo[b]thiophene-3-carbonitrile], the IC50 in assay [1] and in assay [2] was below 5 µM each time.
Consider `N#Cc1c(N)sc2c(F)ccc(-c3c(Cl)cc4c(N5CCCCC6(CN(C(=O)C(F)(F)C(F)(F)F)C6)C5)nc(OC[C@@]56CCCN5C[C@H](F)C6)nc4c3F)c12` [compound 202, 2-amino-4-(6-chloro-8-fluoro-2-(((2R,7aS)-2-fluorotetrahydro-1H-pyrrolizin-7a(5H)-yl)methoxy)-4-(2-(2,2,3,3,3-pentafluoropropanoyl)-2,6-diazaspiro[3.6]decan-6-yl)quinazolin-7-yl)-7-fluorobenzo[b]thiophene-3-carbonitrile], for which the IC50 in assay [1] and in assay [2] was below 5 µM throughout.
On to `N#Cc1c(N)sc2c(F)ccc(-c3c(Cl)cc4c(N5CCCCC6(CN(C(=O)CC7CCO7)C6)C5)nc(OC[C@@]56CCCN5C[C@H](F)C6)nc4c3F)c12` (stereo partly drawn) [compound 203, 2-amino-4-(6-chloro-8-fluoro-2-(((2R,7aS)-2-fluorotetrahydro-1H-pyrrolizin-7a(5H)-yl)methoxy)-4-(2-(2-(oxetan-2-yl)acetyl)-2,6-diazaspiro[3.6]decan-6-yl)quinazolin-7-yl)-7-fluorobenzo[b]thiophene-3-carbonitrile], for which the IC50 in assay [1] and in assay [2] was below 5 µM in each case.
Take `N#Cc1c(N)sc2c(F)ccc(-c3c(Cl)cc4c(N5CCCCC6(CN(C(=O)CC7CCOCC7)C6)C5)nc(OC[C@@]56CCCN5C[C@H](F)C6)nc4c3F)c12` [compound 204, 2-amino-4-(6-chloro-8-fluoro-2-(((2R,7aS)-2-fluorotetrahydro-1H-pyrrolizin-7a(5H)-yl)methoxy)-4-(2-(2-(tetrahydro-2H-pyran-4-yl)acetyl)-2,6-diazaspiro[3.6]decan-6-yl)quinazolin-7-yl)-7-fluorobenzo[b]thiophene-3-carbonitrile]: the IC50 in assay [1] and in assay [2] was below 5 µM in each case.
For the molecule `COC1CN(C(=O)N2CC3(CCCN(c4nc(O[C@@H](C)[C@@H]5CCCN5C)nc5c(F)c(-c6ccc(F)c7sc(N)c(C#N)c67)c(Cl)cc45)C3)C2)C1` [compound 205, 2-amino-4-(6-chloro-8-fluoro-4-(2-(3-methoxyazetidine-1-carbonyl)-2,6-diazaspiro[3.5]nonan-6-yl)-2-((S)-1-((S)-1-methylpyrrolidin-2-yl)ethoxy)quinazolin-7-yl)-7-fluorobenzo[b] thiophene-3-carbonitrile], the IC50 in assay [1] and in assay [2] was below 5 µM in each case.
For `N#Cc1c(N)sc2c(F)ccc(-c3c(Cl)cc4c(N5CCCCC6(CN(C(=O)C(F)(F)F)C6)C5)nc(OC[C@@]56CCCN5C[C@H](F)C6)nc4c3F)c12` [compound 206, 2-amino-4-(6-chloro-8-fluoro-2-(((2R,7aS)-2-fluorotetrahydro-1H-pyrrolizin-7a(5H)-yl)methoxy)-4-(2-(2,2,2-trifluoroacetyl)-2,6-diazaspiro[3.6]decan-6-yl)quinazolin-7-yl)-7-fluorobenzo[b]thiophene-3-carbonitrile], the IC50 in assay [1] and in assay [2] was below 5 µM each time.
For the molecule `N#Cc1c(N)sc2c(F)ccc(-c3c(Cl)cc4c(N5CCCCC6(CN(C(=O)/C=C/C(F)(F)F)C6)C5)nc(OC[C@@]56CCCN5C[C@H](F)C6)nc4c3F)c12` [compound 207, 2-amino-4-(6-chloro-8-fluoro-2-(((2R,7aS)-2-fluorotetrahydro-1H-pyrrolizin-7a(5H)-yl)methoxy)-4-(2-((E)-4,4,4-trifluorobut-2-enoyl)-2,6-diazaspiro [3.6]decan-6-yl)quinazolin-7-yl)-7-fluorobenzo[b]thiophene-3-carbonitrile], the IC50 in assay [1] and in assay [2] was below 5 µM each time.
`N#Cc1c(N)sc2c(F)ccc(-c3c(Cl)cc4c(N5CCCCC6(CN(C(=O)c7ccnn7CC(F)F)C6)C5)nc(OC[C@@]56CCCN5C[C@H](F)C6)nc4c3F)c12` [compound 208, 2-amino-4-(6-chloro-4-(2-(1-(2,2-difluoroethyl)-1H-pyrazole-5-carbonyl)-2,6-diazaspiro[3.6]decan-6-yl)-8-fluoro-2-(((2R,7aS)-2-fluorotetrahydro-1H-pyrrolizin-7a(5H)-yl)methoxy)quinazolin-7-yl)-7-fluorobenzo[b]thiophene-3-carbonitrile]: the IC50 in assay [1] and in assay [2] was below 5 µM each time.
On to `Cc1cc(C(=O)N2CC3(CCCCN(c4nc(OC[C@@]56CCCN5C[C@H](F)C6)nc5c(F)c(-c6ccc(F)c7sc(N)c(C#N)c67)c(Cl)cc45)C3)C2)nn1C(F)F` [compound 209, 2-amino-4-(6-chloro-4-(2-(1-(difluoromethyl)-5-methyl-1H-pyrazole-3-carbonyl)-2,6-diazaspiro[3.6]decan-6-yl)-8-fluoro-2-(((2R,7aS)-2-fluorotetrahydro-1H-pyrrolizin-7a(5H)-yl)methoxy)quinazolin-7-yl)-7-fluorobenzo[b]thiophene-3-carbonitrile], for which the 50% inhibitory concentration (IC50) in assay [1] and in assay [2] was below 5 µM each time.
With `N#Cc1c(N)sc2c(F)ccc(-c3c(Cl)cc4c(N5CCCCC6(CN(C(=O)C7CCC7(F)F)C6)C5)nc(OC[C@@]56CCCN5C[C@H](F)C6)nc4c3F)c12` (stereo partly drawn) [compound 210, 2-amino-4-(6-chloro-4-(2-(2,2-difluorocyclobutane-1-carbonyl)-2,6-diazaspiro[3.6]decan-6-yl)-8-fluoro-2-(((2R,7aS)-2-fluorotetrahydro-1H-pyrrolizin-7a(5H)-yl)methoxy)quinazolin-7-yl)-7-fluorobenzo[b]thiophene-3-carbonitrile], the IC50 in assay [1] and in assay [2] was below 5 µM each time.
For the molecule `N#Cc1c(N)sc2c(F)ccc(-c3c(Cl)cc4c(N5CCCC6(CN(C(=O)N7CC[C@H]7C#N)C6)C5)nc(OC[C@@]56CCCN5C[C@H](F)C6)nc4c3F)c12` [compound 211, (2S)-1-(6-(7-(2-amino-3-cyano-7-fluorobenzo[b]thiophen-4-yl)-6-chloro-8-fluoro-2-(((2R,7aS)-2-fluorotetrahydro-1H-pyrrolizin-7a(5H)-yl)methoxy)quinazolin-4-yl)-2,6-diazaspiro[3.5]nonane-2-carbonyl)azetidine-2-carbonitrile], the IC50 in assay [1] and in assay [2] was below 5 µM throughout.
Take `C[C@H](Oc1nc(N2CCCC3(CN(C(=O)N4CC(F)(F)C4)C3)C2)c2cc(Cl)c(-c3ccc(F)c4sc(N)c(C#N)c34)c(F)c2n1)[C@@H]1CCCN1C` [compound 212, 2-amino-4-(6-chloro-4-(2-(3,3-difluoroazetidine-1-carbonyl)-2,6-diazaspiro[3.5]nonan-6-yl)-8-fluoro-2-((S)-1-((S)-1-methylpyrrolidin-2-yl)ethoxy)quinazolin-7-yl)-7-fluorobenzo[b]thiophene-3-carbonitrile]: the IC50 in assay [1] and in assay [2] was below 5 µM throughout.
Take `CC(F)(F)C(=O)N1CC2(CCCCN(c3nc(OC[C@@]45CCCN4C[C@H](F)C5)nc4c(F)c(-c5ccc(F)c6sc(N)c(C#N)c56)c(Cl)cc34)C2)C1` [compound 213, 2-amino-4-(6-chloro-4-(2-(2,2-difluoropropanoyl)-2,6-diazaspiro[3.6]decan-6-yl)-8-fluoro-2-(((2R,7aS)-2-fluorotetrahydro-1H-pyrrolizin-7a(5H)-yl)methoxy)quinazolin-7-yl)-7-fluorobenzo[b]thiophene-3-carbonitrile]: the concentration for half-maximal inhibition (IC50) in assay [1] and in assay [2] was below 5 µM in each case.

Source of the values: US20240109918A1, “HETEROCYCLIC COMPOUNDS AND USES THEREOF” (Kumquat Biosciences Inc., priority 2022, published 2024).
